Assays:
[1] = target: T1, Proteasome Macropain subunit MB1 (Homo sapiens, UniProt P28074); assay: Inhibition of chymotrypsin-like activity of human 20S proteasome using Suc-LLVY-AMC as substrate by fluorometric method
T1 sequence (P28074 whole entry): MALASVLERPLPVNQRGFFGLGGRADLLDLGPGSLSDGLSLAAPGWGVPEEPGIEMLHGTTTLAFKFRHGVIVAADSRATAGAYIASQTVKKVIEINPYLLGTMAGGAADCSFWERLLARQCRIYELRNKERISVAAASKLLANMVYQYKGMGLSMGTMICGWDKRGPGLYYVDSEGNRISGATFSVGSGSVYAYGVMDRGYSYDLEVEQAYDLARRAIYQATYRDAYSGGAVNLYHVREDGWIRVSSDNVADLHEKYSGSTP

NCI-H460 [2] = assay: Cytotoxicity against human NCI-H460 cells after 48 hrs by MTT assay; details: NCI-H460, 48 h
NCI-H460 [3] = assay: Resistant factor, ratio of IC50 for human doxorubicin-resistant NCI-H460 cells to IC50 for human NCI-H460 cells; format: functional
HepG2 [4] = assay: Cytotoxicity against human doxorubicin-resistant HepG2 cells after 48 hrs by MTT assay; format: functional, cell-based; details: HepG2, 48 h
L02 = assay: Cytotoxicity against human HL-7702 cells after 48 hrs by MTT assay; format: cell-based; details: L02, 48 h
NCI-H460 [5] = assay: cells; details: Homo sapiens, NCI-H460, 48 h
HepG2 [6] = assay: cells; details: Homo sapiens, HepG2, 48 h
Description: Cytotoxicity against human HepG2 cells after 48 hrs by MTT assay

[7] = target: Proteasome Macropain subunit (Homo sapiens, UniProt P49721); assay: Inhibition of trypsin-like activity of human 20S proteasome using Bz-VGR-AMC as substrate by fluorometric method
Sequence of Proteasome Macropain subunit (P49721 whole entry): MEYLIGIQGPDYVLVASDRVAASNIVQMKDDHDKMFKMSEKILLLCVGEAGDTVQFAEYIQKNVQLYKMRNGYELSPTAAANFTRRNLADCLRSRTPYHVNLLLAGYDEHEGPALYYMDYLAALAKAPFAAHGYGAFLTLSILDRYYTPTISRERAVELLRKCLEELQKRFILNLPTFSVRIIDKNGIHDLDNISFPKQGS

HepG2 [8] = assay: Resistant factor, ratio of IC50 for human doxorubicin-resistant HepG2 cells to IC50 for human HepG2 cells; format: functional
NCI-H460 [9] = assay: Induction of apoptosis in human NCI-H460 cells assessed as damaged cells at 4 uM after 24 hrs by Annexin V-PE/7-AAD staining-based flow cytometric analysis (reference value: 9.98%); format: functional
NCI-H460 [10] = assay: Induction of apoptosis in human NCI-H460 cells assessed as late apoptotic/necrotic cells at 4 uM after 24 hrs by Annexin V-PE/7-AAD staining-based flow cytometric analysis (reference value: 5.73%); format: functional
NCI-H460 [11] = assay: Induction of apoptosis in human NCI-H460 cells assessed as early apoptotic cells at 4 uM after 24 hrs by Annexin V-PE/7-AAD staining-based flow cytometric analysis (reference value: 1.33%); format: functional
NCI-H460 [12] = assay: Induction of apoptosis in human NCI-H460 cells assessed as viable cells at 4 uM after 24 hrs by Annexin V-PE/7-AAD staining-based flow cytometric analysis (reference value: 83%); format: functional; details: NCI-H460, 24 h, read-out: Activity
NCI-H460 [13] = assay: Induction of apoptosis in human NCI-H460 cells assessed as damaged cells at 4 uM after 24 hrs in presence of p-gp inhibitor LY335979 by Annexin V-PE/7-AAD staining-based flow cytometric analysis (reference value: 9.98%); format: functional
NCI-H460 [14] = assay: Induction of apoptosis in human NCI-H460 cells assessed as late apoptotic/necrotic cells at 4 uM after 24 hrs in presence of p-gp inhibitor LY335979 by Annexin V-PE/7-AAD staining-based flow cytometric analysis (reference value: 5.73%); format: functional
NCI-H460 [15] = assay: Induction of apoptosis in human NCI-H460 cells assessed as early apoptotic cells at 4 uM after 24 hrs in presence of p-gp inhibitor LY335979 by Annexin V-PE/7-AAD staining-based flow cytometric analysis (reference value: 1.33%); format: functional
NCI-H460 [16] = assay: Induction of apoptosis in human NCI-H460 cells assessed as viable cells at 4 uM after 24 hrs in presence of p-gp inhibitor LY335979 by Annexin V-PE/7-AAD staining-based flow cytometric analysis (reference value: 83%); format: functional; details: NCI-H460, 24 h, read-out: Activity
NCI-H460 [17] = assay: Induction of apoptosis in doxorubicin-resistant human NCI-H460 cells assessed as damaged cells at 4 uM after 24 hrs by Annexin V-PE/7-AAD staining-based flow cytometric analysis (reference value: 0.493%); format: functional
NCI-H460 [18] = assay: Induction of apoptosis in doxorubicin-resistant human NCI-H460 cells assessed as late apoptotic/necrotic cells at 4 uM after 24 hrs by Annexin V-PE/7-AAD staining-based flow cytometric analysis (reference value: 2.87%); format: functional
NCI-H460 [19] = assay: Induction of apoptosis in doxorubicin-resistant human NCI-H460 cells assessed as early apoptotic cells at 4 uM after 24 hrs by Annexin V-PE/7-AAD staining-based flow cytometric analysis (reference value: 1.40%); format: functional
NCI-H460 [20] = assay: Induction of apoptosis in doxorubicin-resistant human NCI-H460 cells assessed as viable cells at 4 uM after 24 hrs by Annexin V-PE/7-AAD staining-based flow cytometric analysis (reference value: 95.2%); format: functional; details: NCI-H460, 24 h, read-out: Activity
NCI-H460 [21] = assay: Induction of apoptosis in doxorubicin-resistant human NCI-H460 cells assessed as damaged cells at 4 uM after 24 hrs in presence of p-gp inhibitor LY335979 by Annexin V-PE/7-AAD staining-based flow cytometric analysis (reference value: 0.493%); format: functional
NCI-H460 [22] = assay: Induction of apoptosis in doxorubicin-resistant human NCI-H460 cells assessed as late apoptotic/necrotic cells at 4 uM after 24 hrs in presence of p-gp inhibitor LY335979 by Annexin V-PE/7-AAD staining-based flow cytometric analysis (reference value: 2.87%); format: functional
NCI-H460 [23] = assay: Induction of apoptosis in doxorubicin-resistant human NCI-H460 cells assessed as early apoptotic cells at 4 uM after 24 hrs in presence of p-gp inhibitor LY335979 by Annexin V-PE/7-AAD staining-based flow cytometric analysis (reference value: 1.40%); format: functional
NCI-H460 [24] = assay: Induction of apoptosis in doxorubicin-resistant human NCI-H460 cells assessed as viable cells at 4 uM after 24 hrs in presence of p-gp inhibitor LY335979 by Annexin V-PE/7-AAD staining-based flow cytometric analysis (reference value: 95.2%); format: functional; details: NCI-H460, 24 h, read-out: Activity

IC50 [1] [µM] | IC50 (NCI-H460 [5]) [µM] | IC50 (HepG2 [6]) [µM] | Compound | IC50 (NCI-H460 [2]) [µM] | Ratio IC50 (NCI-H460 [3]) | IC50 (HepG2 [4]) [µM] | IC50 (L02) [µM] | Ratio IC50 (HepG2 [8]) | other results
29 | – | – | CC[C@H](C)[C@H](NC(=S)Nc1cccc([N+](=O)[O-])c1)C(=O)N[C@H](Cc1ccccc1)C(=O)Nc1ccc(OC)cc1 | – | – | – | – | – | –
0.0086 | 6.74 | 4.8 | CC[C@H](C)[C@H](NC(=S)Nc1cccc([N+](=O)[O-])c1)C(=O)N[C@H](Cc1ccccc1)C(=O)Nc1cccc(C(F)(F)F)c1 | 1.7 | 3.96 | 10.2 | > 50 | 2.12 | IC50 [7]: Not Active; Activity (NCI-H460 [9]): 4.72%; Activity (NCI-H460 [10]): 7.76%; Activity (NCI-H460 [11]): 13.3%; viability at 4 µM (NCI-H460 [12]): 74.2%; Activity (NCI-H460 [13]): 13.9%; Activity (NCI-H460 [14]): 24.2%; Activity (NCI-H460 [15]): 4.86%; viability at 4 µM (NCI-H460 [16]): 57%; Activity (NCI-H460 [17]): 1.9%; Activity (NCI-H460 [18]): 5.96%; Activity (NCI-H460 [19]): 11.4%; viability at 4 µM (NCI-H460 [20]): 80.8%; Activity (NCI-H460 [21]): 5.72%; Activity (NCI-H460 [22]): 29.9%; Activity (NCI-H460 [23]): 31.9%; viability at 4 µM (NCI-H460 [24]): 32.5%
0.022 | 11.2 | 18.6 | CC[C@H](C)[C@H](NC(=S)Nc1ccc(C(F)(F)F)cc1)C(=O)N[C@H](Cc1ccccc1)C(=O)Nc1cccc(Br)c1 | 7.13 | 1.58 | 27.4 | > 50 | 1.47 | –
3.57 | 28.6 | 18 | CC[C@H](C)[C@H](NC(=S)Nc1cccc([N+](=O)[O-])c1)C(=O)N[C@H](Cc1ccccc1)C(=O)Nc1cccc(F)c1 | 12.3 | 2.33 | 36.8 | > 50 | 2.04 | –
0.017 | 15.5 | 12.1 | CC[C@H](C)[C@H](NC(=S)Nc1cccc(C(F)(F)F)c1)C(=O)N[C@H](Cc1ccccc1)C(=O)Nc1ccc(Cl)c(Cl)c1 | 6.14 | 2.52 | 29.6 | > 50 | 2.44 | IC50 [7]: Not Active
2.71 | 35.2 | 17.4 | CC[C@H](C)[C@H](NC(=S)Nc1cccc([N+](=O)[O-])c1)C(=O)N[C@H](Cc1ccccc1)C(=O)Nc1ccc(Br)cc1 | 16.2 | 2.18 | 48.2 | > 50 | 2.76 | –
1.97 | 42.4 | 17.5 | CC[C@H](C)[C@H](NC(=S)Nc1cccc([N+](=O)[O-])c1)C(=O)N[C@H](Cc1ccccc1)C(=O)Nc1ccc(F)cc1 | 20.2 | 2.09 | 48.5 | > 50 | 2.78 | –
> 50 | – | – | CC[C@H](C)[C@H](NC(=S)Nc1ccc(Br)cc1)C(=O)N[C@H](Cc1ccccc1)C(=O)Nc1ccc(C)c(Cl)c1 | – | – | – | – | – | –
19.6 | – | – | CC[C@H](C)[C@H](NC(=S)Nc1cccc(C(F)(F)F)c1)C(=O)N[C@H](Cc1ccccc1)C(=O)Nc1cccc(C(F)(F)F)c1 | – | – | – | – | – | –

The remaining lines, values behind:

Compound | IC50 [1] [µM] | IC50 (NCI-H460 [5]) [µM] | IC50 (HepG2 [6]) [µM] | IC50 (NCI-H460 [2]) [µM] | Ratio IC50 (NCI-H460 [3]) | IC50 (HepG2 [4]) [µM] | IC50 (L02) [µM] | Ratio IC50 (HepG2 [8]) | other results
CC[C@H](C)[C@H](NC(=S)Nc1cccc([N+](=O)[O-])c1)C(=O)N[C@H](Cc1ccccc1)C(=O)Nc1cccc(Cl)c1 | 5.84 | 31.7 | 20.7 | 13.6 | 2.32 | > 50 | > 50 | – | –
COc1cccc2c1C(=O)c1c(O)c3c(c(O)c1C2=O)C[C@@](O)(C(=O)CO)C[C@@H]3O[C@H]1C[C@H](N)[C@H](O)[C@H](C)O1 [DOXORUBICIN] | – | – | 6.91 | – | – | > 50 | 12.2 | – | –
CC[C@H](C)[C@H](NC(=S)Nc1cccc([N+](=O)[O-])c1)C(=O)N[C@H](Cc1ccccc1)C(=O)Nc1ccc(C)c(Cl)c1 | > 50 | – | – | – | – | – | – | – | –
CC[C@H](C)[C@H](/N=C(/Nc1cccc([N+](=O)[O-])c1)SC)C(=O)N[C@H](Cc1ccccc1)C(=O)Nc1ccc(C)c(C)c1 | > 50 | – | – | – | – | – | – | – | –
CC[C@H](C)[C@H](/N=C(/Nc1cccc(C(F)(F)F)c1)SC)C(=O)N[C@H](Cc1ccccc1)C(=O)Nc1ccc(Cl)c(Cl)c1 | 22.2 | – | – | – | – | – | – | – | –
CC[C@H](C)[C@H](/N=C(/Nc1cccc(C(F)(F)F)c1)SC)C(=O)N[C@H](Cc1ccccc1)C(=O)Nc1cccc(C(F)(F)F)c1 | 8.83 | > 50 | 19.3 | 20.3 | – | 49.2 | > 50 | 2.55 | IC50 [7]: Not Active
CC[C@H](C)[C@H](NC(=S)Nc1cccc([N+](=O)[O-])c1)C(=O)N[C@H](Cc1ccccc1)C(=O)Nc1cccc(OC)c1 | 22.3 | – | – | – | – | – | – | – | –
CC[C@H](C)[C@H](NC(=S)Nc1cccc([N+](=O)[O-])c1)C(=O)N[C@H](Cc1ccccc1)C(=O)Nc1ccc(Cl)c(Cl)c1 | 1.36 | 32.3 | 13.3 | 14.8 | 2.18 | 37.4 | > 50 | 2.82 | –
CC[C@H](C)[C@H](NC(=S)Nc1cccc([N+](=O)[O-])c1)C(=O)N[C@H](Cc1ccccc1)C(=O)Nc1ccc(C)c(C)c1 | > 50 | – | – | – | – | – | – | – | –
